Tests used:
[1] = Cytotoxicity in human hepatocytes (LDH release and ATP); type: cell-based; details: LDH and ATP determination, read-out: LC50 (the source's name)
Procedure: Cytotoxicity was assessed with a cell-based assay using human hepatocytes. Cell death was assayed by quantifying plasma membrane damage or rupture through measurement of the release of lactate dehydrogenase (LDH) (Legrand, C. et al. 1992. Lactate dehydrogenase (LDH) activity of the cultured eukaryotic cells as marker of the number of dead cells in the medium. J. Biotechnol. 25: 231-243), a stable cytoplasmic enzyme present in most cells. Determination of cell viability was performed by quantifying ATP (Cree I. A and Andreotti P. E. 1997. Measurement of cytotoxicity by ATP-based luminescence assay in primary cell cultures and cell lines. Toxicology in vitro, 11: 553-556), a marker for cell viability because it is present in all metabolically active cells and the concentration declines very rapidly when the cells undergo necrosis or apoptosis.

[2] = system: rats (Wister, male); assay: Tail-flick test; type: in vivo, rat
Procedure: Kyotorphin is an endogenous analgesic agent in the brain. However, Kyotorphin can not be used as an analgesic due to its inability to cross the blood-brain-barrier. […] In addition, KTP-NH2 efficacy after oral administration was also observed.
In vivo behavioural anti-nociception tests were carried out in rats (Wister, male). Unless otherwise stated, compounds were administered by intra-peritoneal (i.p.) injection. For most assays, the Tail Flick and the Hot Plate tests were used.
The tail-flick test (D'Amour F. E., Smith D. L. 1941. A method for determining the loss of pain sensation. J Pharmacol Exp Ther 1941; 72:74-79) is a standard investigative tool for pain and analgesia assessment in rodents. It is based on a spinal reflex response of the tail to radiant heat. Pain sensitivity in rats was measured as they responded to the application of radiant heat to a small area of their tails. […]
A KTP derivative was used for comparative purposes, as control. Both drugs were injected i.p. and p.o. and rats were analysed for the Hot Plate and Tail Flick tests.
Additionaly, the central action of KTP-NH2 was confirmed by experiments of naloxone-reversible analgesia. […] In order to corroborate the evidence that KTP-NH2 was exerting its analgesic effect via a central action, we analyzed the antinociceptive effect of KTP-NH2 after pretreatment with naloxone.

[3] = Differential quenching, depth of location in the membrane; type: physicochemical; details: phenolic ring, differential quenching with Brownian dynamics simulation
Source text: The x-axis indicates the distance to the bilayer center, being the monolayer thickness 20 Å and y-axis represents the values of the probability density function. Traces (4) and (5) relate to the location of the quenching agents used in the study.
Differential quenching experiments were used to estimate the depth of location of the phenolic ring of the peptides, based on a Brownian dynamics simulation (Fernandes M. X., García de la Torre J., Castanho M. A. 2002. Joint determination by Brownian dynamics and fluorescence quenching of the in-depth location profile of biomolecules in membranes. Anal. Biochem. 307: 1-12.) This methodology allows to determine where the molecules are preferably inserted along the lipid bilayer. The peptides with the amide group show a greater depth of insertion, 4 Å—KTP-NH2, from the lipid/water interface. This is in agreement with KTP-NH2 having a higher affinity for lipids, as desired.

[4] = Acrylamide quenching to determine aggregation in aqueous medium; type: physicochemical; details: acrylamide quenching of tyrosine fluorescence, Stern-Volmer plot
Procedure: The aggregation of molecules in aqueous medium, as a result of poor solubility, for example, is a critical parameter in pharmacology. […] For this purpose, acrylamide quenching studies were performed (Lakowicz J. R 1999. Principles of Fluorescence spectroscopy, Second Edition ed., Kluwer Academic/Plenum Publishers, New York; Coutinho A and Prieto M. 1993. Ribonuclease T1 and alcohol dehydrogenase fluorescence quenching by acrylamide: A laboratory experiment for undergraduate students J. Chem. Education, 70: 425-428).
Acrylamide is an aqueous quencher of the tyrosine fluorescence. When fluorescent peptides aggregate, the phenolic groups tend to cluster and remain inaccessible to hydrophilic molecules. Conversely, when no aggregation occurs, all tyrosine residues are exposed to the solvent and, therefore, accessible to the contact and quenching by acrilamide.
The fluorescence spectra were not concentration-dependent (not shown) and there was a linear dependence of fluorescence intensity on concentration (not shown).

[5] = system: rats (Wister, male); assay: In vivo toxicology: histological alterations in liver, kidney and spleen; parameters: species or system rat; details: i.p. once a day 3.23 mg-100 g body mass, seven days, hematoxylin/eosin sections
Procedure: (§1) The toxicological studies were carried out with rats (Wister, male) injected i.p. once a day with 3.23 mg-100 g body mass during seven days.
For investigation of histological alterations in liver, kidney and spleen hematoxylin/eosin-stained sections of fixed tissue were used. Hematoxylin/eosin-stained sections were examined by an experienced pathologist.

[6] = system: rats (Wister, male); assay: In vivo toxicology: antioxidant capacity in blood samples; parameters: species or system rat; details: i.p. once a day 3.23 mg-100 g body mass, seven days
Procedure: as §1
Metabolization of KTP-NH2 in the organism might lead to an increase in its metabolite products and to the subsequent production of reactive oxygen species (ROS). As increased ROS levels are potentially harmful.
KTP-NH2 potential to induce changes in antioxidant capacities in the plasma of animals was explored. Total antioxidant capacity of lipid-soluble (ACL) and water-soluble (ACW) constituents were determined.

[7] = Metabolic stability in human liver microsomal preparation; type: in vitro ADME; details: human liver microsomes, 1-hour incubation
Source text: Many compounds can never become a drug because they are rapidly metabolized in the liver. It is important to confirm that metabolic stability is adequate to the desired distribution of compound throughout the body.

[8] = Plasma stability; type: in vitro ADME, human; details: after 1 h incubation
Source text: Drugs are exposed in plasma to enzymatic processes (proteinases, esterases), they can undergo intramolecular rearrangement or bind irreversibly (covalently) to proteins. Compounds which are not stable in plasma have inherent liability as drug candidates, as they are less capable to reach a sufficient concentration at their site of pharmacological activity.

N=C(N)NCCCC(NC(=O)C(N)Cc1ccc(O)cc1)C(N)=O [KTP-NH2, L-Tyr-L-Arg-NH2]
CC50 [1]: > 125 µM
effect of naloxone pretreatment on analgesia ([2]; naloxone 10 min before KTP-NH2, KTP-NH2 3 mg/100 g, naloxone 0.5 mg/100 g, tail-flick): completely antagonized the analgesia
anti-nociceptive response, time to remove tail after stimulus (Tail Flick) ([2]; rats, i.p. and p.o. administration): clear anti-nociceptive response
depth of insertion from the lipid/water interface [3]: 4 Å
aggregation in aqueous medium [4]: No evidence was found for aggregation
histological alterations in kidney and spleen [5]: no histological modifications were found
histological alterations in liver [5]: no signs of hepatic necrosis
basal antioxidant capacity in plasma (water-soluble ACW and lipid-soluble ACL constituents) [6]: does not induce significant modifications
compound remained after incubation with microsomal preparation [7]: 93%
stability in human plasma [8]: 14-21%
